# Measurements from US20160015064A1, “COMPOUNDS, COMPOSITIONS, AND METHODS FOR MODULATING SWEET TASTE” (CHROMOCELL CORPORATION, priority 2013, published 2016).
# Experiment: Solubilization of the compounds in solvents/solubilizers and clarity in lemon-lime beverage
# Type: physicochemical
# Settings: for Time final beverage remained a clear solution: sucrose co-melt (caramel-melts), Q-NATURALE® 200
# Procedure: To identify a sufficient delivery mechanism for the sweet enhacing compounds of the present invention, several method of solublization were tested for use in clear beverages. The overall goal was to solubilize the compounds of the invention and have them be deliverable in a clear, carbonated beverage, which can be sweetened with various forms of nutritive and non-nutritive sweeteners without negative flavor impact, i.e. no loss in efficacy (the sweetness perception increase) and no off-flavor formation. In particular, the goal was to identify a delivery mechanism that would allow the compounds to be delivered to the beverage at an “as consumed” level between 10 ppm and 50 ppm. […] The carrier ingredients should not impart any negative physical attributes or negative flavor attributes to the product. An ideal delivery system would not require the labeling of any carrier ingredients and would work with a beverage concentrate model system, preferably a 1+5 concentrate throw.
# Initial trials were conducted to dissolve the compound in various flavor type solvents, including ethanol, 200 proof; triacetin; propylene glycol; lemon-lime flavor extract; lemon oil (washed); citrus oil; polysorbate 80; polysorbate 60; polysorbate 20; benzyl alcohol; and NEOBEE® M-5 oil.
# In polysorbate formulations, Compound 3 and the polysorbates were accurately weighed into screw-capped glass vials according to Table 8 and heated at 70-90° C. and vortex mixed to facilitate the solubilization. The resulting mixtures were blended into 41.5 brix lemon-lime flavored beverage syrup under stirring and stored overnight at room temperature. The syrup was diluted with 5× water to achieve the final 7.7 brix lemon-lime beverage.
# For example, Compound 3 and polysorbate 80 were accurately weighed into screw-capped glass vials according to Table 9 and heated at 70-90° C. and vortex mixed to facilitate the solubilization. Q-[…]® was added to the 41.5 brix lemon-lime flavored beverage syrup. The polysorbate 80 mixtures were blended into 41.5 brix lemon-lime flavored beverage syrup with Q-[…]® 200 and vortex mixed at 3000 rpm for 75 seconds. The resulting syrups were stored overnight at room temperature. The syrup was then diluted with 5× water to achieve the final 7.7 brix lemon-lime beverage. […] Solution PQ2 was able to maintain clear solution for 1 month.
# Because Q-[…]® was able to maintain the stability of the sweet enhancing compounds, it was evaluated in combination with additional solvents. […] In another example, Compound 3, Q-[…]®, and either 1,2-propylene glycol or ethanol 200 proof were accurately weighed into screw-capped glass vials according to Table 10 and heated and vortex mixed to facilitate the solubilization. The resulting solution mixtures were blended into 41.5 brix lemon-lime flavored beverage syrup and vortexed at 3000 rpm for 75 seconds. The resulting syrups were stored overnight at refrigerated temperature and diluted with 5× water to achieve the final 7.7 brix lemon-lime beverage. All solutions (i.e., PGEQ1-PGEQ4) were able to maintain clear solution for 33 days at room temperature and 14 days at refrigerated temperature.
# In another example, 40 mg Compound 3 and 1 g rubusoside were weighed into 20 ml glass vials. 20 ml water was added to the vial, which was vortex mixed slightly to form a suspension solution. The suspension was homogenized at 8000 rpm using a Silverson L5M-A to from an emulsion. The emulsion was heated at 121° C. for 1 h. The sample after heating was suspended at room temperature for 24 h to equilibrate and was filtered afterward. The weight ratio between rubusoside and Compound 3 was determined to be 147:1. Therefore, […] rubusoside was needed to solubilize 25 ppm Compound 3.
# The ability of sugar to co-melt with compounds of the invention was also evaluated. 30 mg Compound 3 and 150 mg sucrose were dissolved in a solvent mixture of 9 ml ethanol and 1 ml water. […]
# [1] = heated at 70-90° C., vortex mixed
structure (smiles),measurement,setting,value
"COc1ccc(C2CC(=O)c3c(O)cccc3O2)cc1O (single isomer, unassigned) [Compound 3, 5-hydroxy-2-(3-hydroxy-4-methoxyphenyl)chroman-4-one]",Precipitation of final beverages,"encapsulated with alpha-, beta-, gamma-cyclodextrin (molar 1:1, 1:2, 1:4), 25 ppm in 7.7 brix lemon-lime beverage",had precipitates
same,Dissolution in polysorbate 20,[1],did not dissolve
same,Dissolution in polysorbate 60,[1],did not dissolve
same,Precipitation in final beverages,"polysorbate 80 solutions PS1-PS6, 7.7 brix lemon-lime beverage",precipitated overnight
same,Time final beverage remained a clear solution,"7.7 brix lemon-lime beverage, refrigerated temperature",14 days
same,Time final beverage remained a clear solution,"7.7 brix lemon-lime beverage, room temperature",30 days
